Laboratory results from patent US12398111B2, “Triazine compounds and pharmaceutical use thereof” (Japan Tobacco Inc., priority 2014, dated 2025).

target: T1, human mPGES-1 (Homo sapiens, UniProt O14684); assay: Evaluation of human mPGES-1 enzyme inhibitory activity (PGE2 measured by HTRF, microsome fraction of CHO-S cells expressing human mPGES-1); assay type: biochemical; details: IC50 value; microsome fraction of CHO-S cells expressing human mPGES-1, PGE2 by HTRF
T1 construct: made in house; host or cells: FreeStyle CHO-S cells (Chinese hamster ovary), transient transfection with pcDNA3.1(+)/human mPGES-1; microsome fraction used
T1 sequence (O14684 1-152): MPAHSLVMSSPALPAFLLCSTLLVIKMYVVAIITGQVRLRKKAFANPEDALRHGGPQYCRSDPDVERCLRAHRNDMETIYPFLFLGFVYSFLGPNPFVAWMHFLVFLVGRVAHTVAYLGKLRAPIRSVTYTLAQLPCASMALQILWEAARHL
Description: That is, the amount of PGE2 produced by human mPGES-1 in the presence of a test article was measured by the HTRF (homogeneous time resolved fluorescence) method, based on which the human mPGES-1 enzyme inhibitory activity of the test article was determined.
1) Preparation of Human mPGES-1 Expressing Cell Microsome Fraction
A DNA fragment containing human mPGES-1, which is added with a BamHI recognition cleavage sequence immediately before the translation initiation codon and an EcoRI recognition cleavage sequence immediately after the translation termination codon was amplified by the PCR (Polymerase Chain Reaction) method using a human mPGES-1 expression plasmid DNA (pME-18S/iPGES-1) prepared in-house as a template. The purified DNA fragment was digested with BamHI and EcoRI, and ligated to pcDNA3.1(+) (Invitrogen, model number V790-20), similarly digested with BamHI and EcoRI, by using a DNA Ligation kit ver.2.1 (Takara Bio, model number 6022). The human mPGES-1 expression plasmid DNA was isolated from Escherichia coli DH5a (TOYOBO, model number DNA-903) transformed with the obtained ligation product. The base sequence of human mPGES-1 cloned to a vector was determined by the Dye Terminator method by using BigDye Terminator v3.1 Cycle Sequencing Kit (Applied Biosystems, #4337455).
Human mPGES-1 expression plasmid DNA was transfected into Chinese hamster ovary-derived cells (FreeStyle CHO-S Cell, Invitrogen, #R800-07) by using a transgene reagent (FreeStyle MAX Reagent (Invitrogen, #16447-100)), and cultured with shaking (8% CO2, 37° C.) in a medium containing 8 mmol/L L-glutamine (GIBCO FreeStyle CHO Expression Medium, Invitrogen, #12651-022) for 48 hr.
The CHO-S cells were suspended in Homogenate Buffer (100 mmol/L potassium phosphate (pH 7.4), 250 mmol/L Sucrose, 100 mmol/L EDTA, complete EDTA free (Roche, #1873580)). Using an ultrasonic disruptor UD-201 (Tomy Seiko), the suspended cells were disrupted at output:3, duty cycle:50 for 30 seconds. The precipitate was removed by centrifugation (1,000×g, 5 min, 4° C.), is and the supernatant was centrifuged (5,000×g, 10 min, 4° C.). The supernatant was further centrifuged (105,000×g, 60 min, 4° C.). The obtained precipitate was suspended in Resuspension Buffer (100 mmol/L potassium phosphate (pH 7.4), 250 mmol/L sucrose, 100 mmol/L EDTA, 10% glycerol) to give a microsome fraction.
The protein concentration of the microsome fraction was measured by the Bradford method (Protein Assay Kit, Bio-Rad). The microsome fraction was rapidly frozen in liquid nitrogen and preserved at −80° C. Human mPGES-1 in the microsome fraction was detected by Western Blot using rabbit anti-mPGES-1 polyclonal antibody (ThermoFisher Scientific, #PA1-10264).
2) Evaluation of Human mPGES-1 Enzyme Inhibitory Activity
A test article solution diluted with 0.1 mol/L potassium phosphate, pH 7.4 (hereinafter to be referred to as KPB) or DMSO (Nacalai Tesque, #13407-45) was added at 5 μL/well to 96 well V-bottom plate (Corning, #3363). The final DMSO concentration during the reaction was set to 2% (v/v). Furthermore, a microsome fraction of CHO-S cells expressing human mPGES-1, which was diluted with reduced GSH (12.5 mmol/L KPB solution, SIGMA, #G6529-25G) such that the protein concentration was 5 μg/mL, was added at 20 μL/well. The amount of the microsome fraction used is the amount of microsome fraction within a range where the amount of PGE2 produced under the reaction conditions shown below and the amount of microsome fraction used show linearity. To the blank was added reduced GSH (12.5 mmol/L KPB solution) at 20 μL/well.

| IC50 [nM] | Structure (SMILES) |
| --- | --- |
| 8.9 | Oc1nc(-c2ccc(C#Cc3ccccn3)cc2)nc(-c2c(Cl)cccc2OCc2ccccn2)n1 [Example 2-97] |
| 570 | Cc1cccc(C)c1-c1nc(O)nc(-c2ccc(O[C@@H](C)c3ccccc3)cc2)n1 [Example 2-43] |
| 341 | CC(C)Oc1cccc(Cl)c1-c1nc(O)nc(-c2ccc(C(F)(F)F)cc2)n1 [Example 2-21] |
| 8 | Cc1cccc(C)c1-c1nc(O)nc(-c2ccc(C#CC3CCCCC3)cc2)n1 [Example 2-18] |
| 84 | CCCCCOc1ccc(-c2nc(O)nc(-c3c(C)cccc3C)n2)cc1 [Example 2-69] |
| 27 | CC(C)COc1ccc(-c2nc(O)nc(-c3c(Cl)cccc3O[C@@H](C)c3ccccn3)n2)cc1 [Example 2-67] |
| 121 | Oc1nc(-c2ccc(C(F)(F)F)cc2)nc(-c2c(Cl)cccc2OCc2cccnc2)n1 [Example 2-60] |
| 283 | Cc1cccnc1COc1cccc(Cl)c1-c1nc(O)nc(-c2ccc(OCC(C)C)cc2)n1 [Example 2-72] |
| 412 | Oc1nc(-c2ccc(C(F)(F)F)cc2)nc(-c2c(O)cccc2Cl)n1 [Example 2-16] |
| 16 | Cc1c(CNS(=O)(=O)C(C)(C)C)ccc(Cl)c1-c1nc(O)nc(-c2ccc(C(F)(F)F)cc2)n1 [Example 3-10] |
| 503 | Cc1cccc(C)c1-c1nc(O)nc(-c2cccc(OCc3ccccc3)c2)n1 [Example 2-29] |
| 429 | CCCOc1ccc(-c2nc(O)nc(-c3c(C)cccc3C)n2)cc1 [Example 2-41] |
| 12 | Cc1cccc(COc2cccc(C(F)(F)F)c2-c2nc(O)nc(-c3ccc(C#Cc4cccc(Cl)c4)cc3)n2)n1 [Example 2-123] |
| 4.4 | Oc1nc(-c2ccc(C#CC3CCCCC3)cc2)nc(-c2c(Cl)cccc2OCc2ccccn2)n1 [Example 2-92] |
| 3500 | Cc1cccc(C)c1-c1nc(O)nc(-c2ccc(C(C)(C)C)cc2)n1 [Example 2-7] |
| 163 | COCCOc1cccc(Cl)c1-c1nc(O)nc(-c2ccc(C(F)(F)F)cc2)n1 [Example 2-34] |
| 172 | Cc1cccc(C)c1-c1nc(O)nc(-c2ccc(OCCC(C)C)cc2)n1 [Example 2-71] |
| 12 | Cc1cccc(COc2cccc(C(F)(F)F)c2-c2nc(O)nc(-c3ccc(C#Cc4ccc(Cl)cc4)cc3)n2)n1 [Example 2-124] |
| 155 | OCCCOc1cccc(Cl)c1-c1nc(O)nc(-c2ccc(C(F)(F)F)cc2)n1 [Example 2-23] |
| 39 | CCOc1cccc(Cl)c1-c1nc(O)nc(-c2ccc(C(F)(F)F)cc2)n1 [Example 2-17] |

The next lines start with the molecule.

| Structure (SMILES) | IC50 [nM] |
| --- | --- |
| Cc1cc(-c2nc(O)nc(-c3cc(CNC(=O)C4(C(F)(F)F)CC4)ccc3Cl)n2)ccc1F [Example 1-127] | 0.8 |
| CC(C)(C)COc1ccc(-c2nc(O)nc(-c3cc(CO)ccc3C(F)(F)F)n2)cc1 [Example 1-207] | 4.3 |
| CC(C)(C(=O)NCc1ccc(Cl)c(-c2nc(O)nc(-c3ccccc3)n2)c1)C(F)(F)F [Example 1-69] | 0.3 |
| CO[C@](C)(C(=O)NC(C)c1ccc(Cl)c(-c2nc(O)nc(-c3ccc(F)c(C)c3)n2)c1)C(F)(F)F (single isomer, unassigned) [Example 1-188] | 1.6 |
| CN(Cc1ccc(Cl)c(-c2nc(O)nc(-c3ccccc3)n2)c1)C(=O)C(C)(C)c1ccccc1 [Example 1-237] | 1300 |
| O=C(NCc1ccc(Cl)c(-c2nc(O)nc(-c3ccc(C(F)(F)F)cc3)n2)c1)C1CCCC1 [Example 1-30] | 0.6 |
| CCCC(CO)(CCC)C(=O)NCc1ccc(Cl)c(-c2nc(O)nc(-c3ccccc3)n2)c1 [Example 1-259] | 176 |
| Cc1cc(-c2nc(O)nc(-c3cc(CNC(=O)C4(C(F)(F)F)CC4)ccc3Cl)n2)ccc1C(F)(F)F [Example 1-149] | 0.8 |
| CC(C)OC(=O)NCc1ccc(Cl)c(-c2nc(O)nc(-c3ccc(C(F)(F)F)cc3)n2)c1 [Example 1-39] | 1.9 |
| O=C(O)Cc1ccc(Cl)c(-c2nc(O)nc(-c3ccc(C(F)(F)F)cc3)n2)c1 [Example 1-23] | 134 |
| CC(=O)NCc1ccc(C)c(-c2nc(O)nc(-c3ccc(C(F)(F)F)cc3)n2)c1 [Example 1-47] | 43 |
| CN(Cc1ccc(Cl)c(-c2nc(O)nc(-c3ccccc3)n2)c1)C(=O)C(C)(C)C(F)(F)F [Example 1-220] | 16 |
| CN(Cc1ccc(Cl)c(-c2nc(O)nc(-c3ccc(OCC4CCCCC4)cc3)n2)c1)C(=O)C(C)(C)C(F)(F)F [Example 1-211] | 63 |
| COCc1ccc(Cl)c(-c2nc(O)nc(-c3ccc(OCC(C)(C)C)cc3)n2)c1 [Example 1-197] | 289 |
| CCS(=O)(=O)NCc1ccc(Cl)c(-c2nc(O)nc(-c3ccc(C(F)(F)F)cc3)n2)c1 [Example 1-31] | 1 |
| Cc1cc(-c2nc(O)nc(-c3cc(CNC(=O)C4(C(F)(F)F)CCC4)ccc3Cl)n2)ccc1F [Example 1-125] | 0.8 |
| CN(Cc1ccc(Cl)c(-c2nc(O)nc(-c3ccccc3)n2)c1)C(=O)C(C)(C)Cc1ccccc1 [Example 1-249] | 226 |

| Structure (SMILES) | IC50 [nM] |
| --- | --- |
| CCC(C)(C)C(=O)NCc1ccc(Cl)c(-c2nc(O)nc(-c3cccc(C(F)(F)F)c3)n2)c1 [Example 1-58] | 0.5 |
| Cc1ccc(-c2nc(O)nc(-c3cc(CNC(=O)C(C)(C)C)ccc3Cl)n2)cc1 [Example 1-63] | 0.5 |
| Cc1ccc(CNC(=O)C(C)(C)C)cc1-c1nc(O)nc(-c2ccc(C(F)(F)F)cc2)n1 [Example 1-48] | 0.9 |
| CNC(=O)NCc1ccc(Cl)c(-c2nc(O)nc(-c3ccc(C(F)(F)F)cc3)n2)c1 [Example 1-35] | 22 |
| CCCCc1ccc(Cl)c(-c2nc(O)nc(-c3ccc(OCC(C)(C)C)cc3)n2)c1 [Example 1-205] | 367 |
| O=C(NCc1ccc(Cl)c(-c2nc(O)nc(-c3ccc(F)c(C4CC4)c3)n2)c1)C1(C(F)(F)F)CC1 [Example 1-157] | 0.7 |
| CC(C)(C)COc1ccc(-c2nc(O)nc(-c3cc(CC(C)(C)O)ccc3Cl)n2)cc1 [Example 1-214] | 24 |
| CNC(=O)Cc1ccc(Cl)c(-c2nc(O)nc(-c3ccc(C(F)(F)F)cc3)n2)c1 [Example 1-26] | 18 |
| CC(=O)c1ccc(Cl)c(-c2nc(O)nc(-c3ccc(C(F)(F)F)cc3)n2)c1 [Example 1-13] | 397 |
| O=C(NCc1ccc(Cl)c(-c2nc(O)nc(-c3ccc(OCC4CC4)cc3)n2)c1)C1CCC(F)(F)CC1 [Example 1-170] | 1.5 |
| CN(C)C(=O)NCc1ccc(Cl)c(-c2nc(O)nc(-c3ccc(C(F)(F)F)cc3)n2)c1 [Example 1-34] | 5.9 |
| O=C(NCc1ccc(Cl)c(-c2nc(O)nc(-c3ccccc3)n2)c1)C1CCCCC1 [Example 1-71] | 2.5 |
| CN(C)C(=O)Cc1ccc(Cl)c(-c2nc(O)nc(-c3ccc(C(F)(F)F)cc3)n2)c1 [Example 1-40] | 2230 |
| COc1ccc(-c2nc(O)nc(-c3cc(CNC(=O)C(C)(C)C(F)(F)F)ccc3Cl)n2)cc1 [Example 1-139] | 0.6 |
| CO[C@](C)(C(=O)NCc1ccc(Cl)c(-c2nc(O)nc(-c3ccc(OCC4CC4)cc3)n2)c1)C(F)(F)F [Example 1-162] | 1.2 |
| COCCOc1ccc(-c2nc(O)nc(-c3cc(CNC(=O)C(C)(C)C(F)(F)F)ccc3Cl)n2)cc1 [Example 1-144] | 0.9 |

same assay, conditions: at 30 μM test article

| Structure (SMILES) | inhibition at 30 µM [%] |
| --- | --- |
| Cc1ccc(C(=O)O)cc1-c1nc(O)nc(-c2ccc(C(F)(F)F)cc2)n1 [Example 1-10] | 5 |
